Assay [1] has as its target T1, TBK1 (Homo sapiens, UniProt Q9UHD2).
T1 sequence (Q9UHD2 1-729): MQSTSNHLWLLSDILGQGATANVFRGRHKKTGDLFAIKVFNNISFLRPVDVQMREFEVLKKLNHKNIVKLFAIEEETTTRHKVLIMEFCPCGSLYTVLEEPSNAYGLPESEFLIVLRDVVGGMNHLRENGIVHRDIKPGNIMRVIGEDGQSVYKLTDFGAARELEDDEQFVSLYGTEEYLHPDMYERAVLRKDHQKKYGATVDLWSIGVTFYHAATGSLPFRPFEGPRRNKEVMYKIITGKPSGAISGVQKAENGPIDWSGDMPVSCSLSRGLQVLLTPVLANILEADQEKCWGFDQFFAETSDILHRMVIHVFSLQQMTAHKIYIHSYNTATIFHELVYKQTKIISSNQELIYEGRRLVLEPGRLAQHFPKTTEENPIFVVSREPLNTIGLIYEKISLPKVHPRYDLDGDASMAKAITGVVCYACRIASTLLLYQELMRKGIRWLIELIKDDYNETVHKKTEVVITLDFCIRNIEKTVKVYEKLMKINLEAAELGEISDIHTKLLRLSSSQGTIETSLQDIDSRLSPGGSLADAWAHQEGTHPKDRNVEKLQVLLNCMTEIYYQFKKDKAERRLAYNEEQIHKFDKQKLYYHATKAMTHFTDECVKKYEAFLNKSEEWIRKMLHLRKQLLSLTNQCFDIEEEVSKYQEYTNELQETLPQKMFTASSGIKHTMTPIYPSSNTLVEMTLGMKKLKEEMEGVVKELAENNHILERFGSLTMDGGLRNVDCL
Nature of the assay: TBK Biochemical Assay. The note with it: read-out: TBK1 IC50. The essentials:
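TBK1 enzyme and substrate incubated with compounds (10-point 1:4 dilution, top 30 uM final, 1% DMSO) for 90 min at 25° C, then stopped. Substrate/product peaks read by microfluidic mobility-shift (Caliper LabChip); 10 uM staurosporine as full-inhibition control.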

Assay [2] has as its target T2, IKKε (Homo sapiens, UniProt Q14164).
T2 sequence (Q14164 1-716): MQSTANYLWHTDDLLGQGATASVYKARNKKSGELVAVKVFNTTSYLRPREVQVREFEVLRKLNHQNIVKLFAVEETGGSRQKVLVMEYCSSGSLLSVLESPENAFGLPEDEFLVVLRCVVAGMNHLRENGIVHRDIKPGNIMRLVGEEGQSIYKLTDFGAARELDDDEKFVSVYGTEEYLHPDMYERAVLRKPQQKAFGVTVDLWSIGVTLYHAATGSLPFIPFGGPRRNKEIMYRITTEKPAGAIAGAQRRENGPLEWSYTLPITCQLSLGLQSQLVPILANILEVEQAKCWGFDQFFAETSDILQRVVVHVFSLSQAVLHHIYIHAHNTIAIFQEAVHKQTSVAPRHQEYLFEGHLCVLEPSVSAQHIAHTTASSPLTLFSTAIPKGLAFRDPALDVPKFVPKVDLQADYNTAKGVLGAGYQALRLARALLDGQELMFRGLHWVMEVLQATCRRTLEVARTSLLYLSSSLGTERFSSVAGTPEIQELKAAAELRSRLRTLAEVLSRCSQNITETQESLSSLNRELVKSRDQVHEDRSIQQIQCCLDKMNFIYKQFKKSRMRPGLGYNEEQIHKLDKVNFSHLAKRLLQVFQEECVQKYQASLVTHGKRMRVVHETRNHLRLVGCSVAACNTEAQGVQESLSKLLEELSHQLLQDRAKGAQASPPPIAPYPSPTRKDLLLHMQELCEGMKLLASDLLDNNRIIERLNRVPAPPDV
Put plainly: IKKe Biochemical Assay. The note with it: read-out: IKKε IC50. Put shortly:
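Recombinant IKKε and substrate were incubated with compound (10-point 1:4 series, top 30 uM final, 1% DMSO) for 90 min at 25° C, then stopped. Substrate-to-product conversion was read by LabChip microfluidic mobility shift; 10 uM staurosporine served as full-inhibition wells.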

Assay [3] relates to phosphorylation of the IRF-3 protein in MDA-MB-468 cells. Nature of the assay: pIRF3 immunocytochemistry cell based assay. The note with it: MDA-MB-468 cells, Poly(I:C) stimulation, read-out: pIRF3 IC50. Put shortly:
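MDA-MB-468 cells got compounds (10-point, 3-fold from 10 uM) for 1 h at 37 °C, then 10 ug/ml Poly(I:C) for 2 h. Fixed, permeabilized cells were immunostained for pIRF3 with AlexaFluor488 and counterstained with PI. % phosphorylation was read by laser scanning cytometry, and IC50 curves were fitted.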

The record followed here is patent US10428080B2, “TBK/IKK inhibitor compounds and uses thereof” (Merck Patent GmbH, priority 2015, dated 2019).

Structures can show the parent of a compound that is named as a salt. Where two headings read alike, the source gives them in different places.

Broadly, the IC50 is the concentration needed to halve the response being measured.

For the molecule `COc1cc(C(=O)N(C)C)cnc1-c1cc2nccc(-c3ccc(OC4CCN(C(C)C)C4)c(C#N)c3)c2o1` (stereo not drawn) [Compound 427, 6-(7-(3-cyano-4-(1-isopropylpyrrolidin-3-yloxy)phenyl)furo[3,2-b]pyridin-2-yl)-5-methoxy-N,N-dimethylnicotinamide], the IC50 in assay [1], in assay [2] and in assay [3] (Homo sapiens) was 100 to 1000 nM each time.

As for `COc1cc(C(=O)NC2CN3CCC2CC3)cnc1-c1cc2nccc(-c3ccc(N4CC[C@@H](F)C4)c(C#N)c3)c2o1` (stereo partly drawn) [Compound 442, N—(R)-1-Aza-bicyclo[2.20.2]oct-3-yl-6-{7-[3-cyano-4-((R)-3-fluoro-pyrrolidin-1-yl)-phenyl]-furo[3,2-b]pyridin-2-yl}-5-methoxy-nicotinamide], the IC50 in assay [1] was less than 100 nM; in assay [2], less than 100 nM; in assay [3], 100 to 1000 nM.

Take `COc1cc(C(=O)NC2CCN(C)CC2O)ccc1-c1cc2nccc(-c3ccc(OC4CCOCC4)c(C#N)c3)c2o1` (stereo not drawn) [Compound 347, 4-[7-[3-cyano-4-(oxan-4-yloxy)phenyl]furo[3,2-b]pyridin-2-yl]-N-(3-hydroxy-1-methylpiperidin-4-yl)-3-methoxybenzamide]: the half-maximal inhibitory concentration (IC50) was less than 100 nM in assay [1], less than 100 nM in assay [2] and 100 to 1000 nM in assay [3] (Homo sapiens).

`COc1cc(C(=O)NC2CN3CCC2CC3)ncc1-c1cc2nccc(-c3ccc(N4CCC(F)C4)c(C#N)c3)c2o1` (stereo not drawn) [Compound 443, N-[1-azabicyclo[2.2.2]octan-3-yl]-5-[7-[3-cyano-4-(3-fluoropyrrolidin-1-yl)phenyl]furo[3,2-b]pyridin-2-yl]-4-methoxypyridine-2-carboxamide]: the figures for the IC50 in assay [1], in assay [2] and in assay [3] (Homo sapiens) were less than 100 nM, less than 100 nM and 100 to 1000 nM, respectively.

Regarding `COc1cc(C(=O)NC(C)(C)CCN(C)C)ccc1-c1cc2nccc(-c3ccc(OC4CCOCC4)c(C#N)c3)c2o1` [Compound 505, 4-{7-[3-Cyano-4-(tetrahydro-pyran-4-yloxy)-phenyl]-furo[3,2-b]pyridin-2-yl}-N-(3-dimethylamino-1,1-dimethyl-propyl)-3-methoxy-benzamide], the results for the IC50 in assay [1], in assay [2] and in assay [3] (Homo sapiens) were less than 100 nM, less than 100 nM and 100 to 1000 nM, respectively.

Take `CN(C)C(=O)c1ccc(-c2cc3nccc(-c4ccc(O[C@@H]5CCCOC5)c(C#N)c4)c3o2)cc1` [Compound 156, 4-(7-{3-Cyano-4-[(R)-(tetrahydro-pyran-3-yl)oxy]-phenyl}-furo[3,2-b]pyridin-2-yl)-N,N-dimethyl-benzamide]: the IC50 was less than 100 nM in assay [1], less than 100 nM in assay [2] and 1000 to 5000 nM in assay [3] (Homo sapiens).

As to `COc1cc(C(=O)NC2CN3CCC2CC3)cnc1-c1cc2nccc(-c3ccc(N4CCC(F)C4)c(C#N)c3)c2o1` (stereo not drawn) [Compound 438, N-[1-azabicyclo[2.2.2]octan-3-yl]-6-[7-[3-cyano-4-(3-fluoropyrrolidin-1-yl)phenyl]furo[3,2-b]pyridin-2-yl]-5-methoxypyridine-3-carboxamide], the IC50 is less than 100 nM in assay [1], less than 100 nM in assay [2] and 100 to 1000 nM in assay [3] (Homo sapiens).

On to `COc1cc(C(=O)N(C)C(C)(C)CO)ccc1-c1cc2nccc(-c3ccc(OC4CCOCC4)c(C#N)c3)c2o1` [Compound 480, 4-{7-[3-Cyano-4-(tetrahydro-pyran-4-yloxy)-phenyl]-furo[3,2-b]pyridin-2-yl}-N-(2-hydroxy-1,1-dimethyl-ethyl)-3-methoxy-N-methyl-benzamide], for which the results for the IC50 in assay [1], in assay [2] and in assay [3] (Homo sapiens) were less than 100 nM, less than 100 nM and 100 to 1000 nM, respectively.

As to `COc1cc(C(=O)N(C)C)ccc1-c1cc2nccc(-c3ccc(OC4CCN(C)C4)c(C#N)c3)c2o1` (stereo not drawn) [Compound 149, 4-{7-[3-Cyano-4-(1-methyl-pyrrolidin-3-yloxy)-phenyl]-furo[3,2-b]pyridin-2-yl}-3-methoxy-N,N-dimethyl-benzamide], the IC50 was less than 100 nM in assay [1], less than 100 nM in assay [2] and 100 to 1000 nM in assay [3] (Homo sapiens).

In the case of `COc1cc(C(=O)N(C)C(C)(C)C)ccc1-c1cc2nccc(-c3ccc(OC4CCOCC4)c(C#N)c3)c2o1` [Compound 481, N-tert-Butyl-4-{7-[3-cyano-4-(tetrahydro-pyran-4-yloxy)-phenyl]-furo[3,2-b]pyridin-2-yl}-3-methoxy-N-methyl-benzamide], the values for the IC50 in assay [1], in assay [2] and in assay [3] (Homo sapiens) were less than 100 nM, less than 100 nM and 100 to 1000 nM, respectively.

For the molecule `COc1cc(C(=O)N2CC3NCCC32)ccc1-c1cc2nccc(-c3ccc(OC4CCOCC4)c(C#N)c3)c2o1` (stereo not drawn) [Compound 55, 5-{2-[4-(2,6-Diaza-bicyclo[3.2.0]heptane-6-carbonyl)-2-methoxy-phenyl]-furo[3,2-b]pyridin-7-yl}-2-(tetrahydro-pyran-4-yloxy)-benzonitrile hydrochloride], the IC50 in assay [1], in assay [2] and in assay [3] (Homo sapiens) was less than 100 nM in each case.

On to `COc1cc(C(=O)N(C)C)ncc1-c1cc2nccc(-c3ccc(OC4CCN(C)C4)c(C#N)c3)c2o1` (stereo not drawn) [Compound 430, 5-(7-[3-cyano-4-[(1-methylpyrrolidin-3-yl)oxy]phenyl]furo[3,2-b]pyridin-2-yl)-4-methoxy-N,N-dimethylpyridine-2-carboxamide], for which the IC50 in assay [1], in assay [2] and in assay [3] (Homo sapiens) was 100 to 1000 nM in each case.

As for `COc1cc(C(=O)N2CC3CN(C)CC3C2)ccc1-c1cc2nccc(-c3ccc(N4CC[C@@H](F)C4)c(C#N)c3)c2o1` (stereo partly drawn) [Compound 501], the IC50 is less than 100 nM in assay [1], less than 100 nM in assay [2] and 100 to 1000 nM in assay [3] (Homo sapiens).

On to `COc1cc(C(=O)N[C@@H]2[C@@H]3C[C@H]2CN(C)C3)cnc1-c1cc2nccc(-c3ccc(OC4CCOCC4)c(C#N)c3)c2o1` [Compound 398, 6-{7-[3-Cyano-4-(tetrahydro-pyran-4-yloxy)-phenyl]-furo[3,2-b]pyridin-2-yl}-5-methoxy-N-((1R,5S,6S)-3-methyl-3-aza-bicyclo[3.10.1]hept-6-yl)-nicotinamide], for which the IC50 in assay [1], in assay [2] and in assay [3] (Homo sapiens) was less than 100 nM throughout.

As for `COc1cc(C(=O)N(C)C)ccc1-c1cc2nccc(-c3ccc(O[C@@H]4CCNC[C@@H]4F)c(C#N)c3)c2o1` [Compound 153, 4-{7-[3-Cyano-4-((3S,4R)-3-fluoro-piperidin-4-yloxy)-phenyl]-furo[3,2-b]pyridin-2-yl}-3-methoxy-N,N-dimethyl-benzamide hydrochloride], the values for the concentration for half-maximal inhibition (IC50) in assay [1], in assay [2] and in assay [3] (Homo sapiens) were less than 100 nM, less than 100 nM and 100 to 1000 nM, respectively.

For the molecule `COc1cc(C(=O)N2CC(N(C)C)C2)ccc1-c1cc2nccc(-c3ccc(OC4CCOCC4)c(C#N)c3)c2o1` [Compound 24, 5-{2-[4-(3-Dimethylamino-azetidine-1-carbonyl)-2-methoxy-phenyl]-furo[3,2-b]pyridin-7-yl}-2-(tetrahydro-pyran-4-yloxy)-benzonitrile], the IC50 in assay [1], in assay [2] and in assay [3] (Homo sapiens) was less than 100 nM throughout.
